Values after ≈ are worked out from the molar mass of the structure shown.
Columns and labels:
[1] = Lipophilicity, log D of the compound at pH 7.4; format: physicochemical; conditions: buffer
[2] = Solubility of the compound in JP2 buffer at pH 6.8 at 10 mmol/L; format: physicochemical
[3] = Oral bioavailability in rat at 1 mg/kg administered as cassette dose; format: ADME, organism-based; conditions: in vivo
[4] = Kinetic solubility in PBS; format: physicochemical; conditions: read-out: Kinetic_solubility
[5] = Oral bioavailability in rat at 5 mg/kg administered as cassette dose; format: ADME, organism-based; conditions: in vivo

Structure (SMILES)	logD [1]	solubility [2] [µg/mL]	bioavailability [3] [%]	solubility kinetic [4] [µg/mL]	bioavailability [5] [%]
CCC(O)c1ccc(Cl)c2nc3n(c12)CCCN3c1ccc(Cl)cc1Cl (configuration not stated)	3.57				
CCc1nc(C)nc(CC)c1N1CCCn2c1nc1c(Cl)ccc(C(OC(F)F)C(F)(F)F)c12 (racemic)	3.52	46 (≈ 91.3 µM)			
CCC(=O)c1ccc(Cl)c2nc3n(c12)CCCN3c1ccc(Cl)cc1Cl	4.01				
CCC(c1ccc(Cl)c2nc3n(c12)CCCN3c1ccc(Cl)cc1Cl)n1ccnc1 (configuration not stated)	3.53				
CCN(CC)c1ccc(Cl)c2nc3n(c12)CCCN3c1ccc(Cl)cc1Cl	5.25	< 0.06	4.1		
CCc1nc(C)c(N2CCCn3c2nc2c(Cl)ccc(C(OC(F)F)C(F)(F)F)c23)c(C)n1 (racemic)	3.21	37 (≈ 75.5 µM)			

Further lines, results first:

logD [1]	solubility [2] [µg/mL]	bioavailability [3] [%]	solubility kinetic [4] [µg/mL]	bioavailability [5] [%]	Structure (SMILES)
3.69					CCC(C#N)c1ccc(Cl)c2nc3n(c12)CCCN3c1ccc(Cl)cc1Cl (configuration not stated)
2.87	71 (≈ 149 µM)				Cc1nc(C)c(N2CCCn3c2nc2c(Cl)ccc(C(OC(F)F)C(F)(F)F)c23)c(C)n1 (racemic)
4.3	< 0.09				FC(F)OC(c1ccc(Cl)c2nc3n(c12)CCCN3c1ccc(Cl)cc1Cl)C(F)(F)F (racemic)
4.38					CCC(OC)c1ccc(Cl)c2nc3n(c12)CCCN3c1ccc(Cl)cc1Cl (configuration not stated)
3.43	17 (≈ 35.7 µM)				COc1ccc(N2CCCn3c2nc2c(Cl)ccc(C(OC(F)F)C(F)(F)F)c23)c(C)n1 (racemic)
3.76	1.5 (≈ 3.15 µM)				COc1ccc(N2CCCn3c2nc2c(Cl)ccc(C(OC(F)F)C(F)(F)F)c23)c(C)c1 (racemic)
3.71	14 (≈ 27.6 µM)				COc1nc(C)nc(OC)c1N1CCCn2c1nc1c(Cl)ccc(C(OC(F)F)C(F)(F)F)c12 (racemic)
3.18			55 (≈ 112 µM)	68	COc1nc(C)c(N2CCCn3c2nc2c(Cl)ccc([C@@H](OC(F)F)C(F)(F)F)c23)c(C)n1
3.08	54 (≈ 110 µM)				COc1nc(C)c(N2CCCn3c2nc2c(Cl)ccc(C(OC(F)F)C(F)(F)F)c23)c(C)n1 (racemic)

Reference: ChEMBL document CHEMBL4219081, “Discovery of 1,2,3,4-tetrahydropyrimido[1,2-a]benzimidazoles as novel class of corticotropin releasing factor 1 receptor antagonists” (Bioorg Med Chem, 2018)
